Test results reported in patent publication US20260151391A1, “TREATMENT OF MITOCHONDRIAL DISEASES WITH sGC STIMULATORS” (Tisento Therapeutics Inc., priority 2022, published 2026).

Test system: normotensive Sprague Dawley rats
Test: Blood pressure effects in normotensive rats following acute oral dose
Type: in vivo, rat
Conditions: for Peak ΔVMAP (mm Hg): sodium salt in Milli-Q water, vehicle-adjusted MAP, 10-minute bins; for Time at Peak: time of peak ΔVMAP
Experimental: Male, normotensive Sprague Dawley rats were purchased from Charles River Laboratories. These rats have indwelling femoral artery catheters installed. Animals were harnessed to a tether system and attached to pressure transducers to monitor cardiovascular (CV) parameters, specifically mean arterial pressure (MAP) and heart rate (HR). Animals were acclimated to the system overnight and baseline CV parameters collected. The conscious, freely moving rats were then administered a single oral dose of the Compound I-14 (doses generated from the sodium salt of Compound I-14) in Milli-Q water at 1, 3, 10 and 30 mg/kg. A blood sample was collected from each animal through the catheter line at pre-dose and 2 hours post-dose for compound concentration quantification. Hemodynamic measures were recorded for ten hours post-dose. Fifty-four male rats were used for these studies and they were ordered to be received at a body weight range of 250-275 grams. They were single housed under controlled conditions of temperature (21±1° C.), relative humidity (36±1%) and placed in a 12-hr light-dark cycle (lights on at 6:00 AM and off at 6:00 PM) room at SmartLabs vivarium (21 Erie Street, Cambridge, MA) under protocol MIL-110. Animals were allowed ad libitum access to chow (LabDiet Prolab Isopro RMH 3000, St. Louis, MO) and water. Two sets of studies were carried out. For the first set of studies Compound I-14 was formulated at 0.3 and 1.0 mg/ml in Milli-Q water and frozen at −20° C. For the second set of studies, the sodium salt of Compound I-14 was weighed at Cyclerion Therapeutics and reconstituted at SmartLabs to provide 0.1, 0.3, 1.0 and 3.0 mg/ml solutions of Compound I-14 in Milli-Q water. Formulations prepared were thawed less than 4 hours before dosing and stored at room temperature or were made less than 2 hours before dosing and stored at room temperature.
Studies were conducted over 6 separate sessions. Animals were initially used within 3 days of receipt and if catheters remained patent, reused once after 6-7 days of washout. No animals were used more than twice.
This study utilized ADInstruments LabChart (v8) to collect hemodynamic data from conscious, freely moving rats tethered to a blood pressure transducer (Harvard Apparatus cat #APT300). Following an overnight acclimation to the tether and pressure transducer, animals were dosed following a 1-hr baseline recording period. Animals were administered a single oral (P.O.) dose of the sodium salt form of Compound I-14 or vehicle at a dose volume of 10 mL/kg. Data collection was continued for 10 hours post-dose.
ADInstruments LabChart (v8) was used to monitor and export hemodynamic data. Blood pressure and heart rate were continuously monitored, and data were collected at 1000 data points per second then averaged into 10-minute bins for analysis. Change from baseline MAP (ABMAP) and HR (ABHR) were calculated using the pre-dose baseline averaged over the 1-hr period prior to dosing using Microsoft Excel for Microsoft 365. This 10-minute bin dataset was used to determine peak ΔVMAP, time peak ΔVMAP, peak ΔVHR and time of peak ΔVHR. The dataset was further consolidated into 1-hr bins for the MAP and HR figures and the analysis of ΔBMAP, ΔBMAP, and ΔBHR. The definitions of these terms/abbreviations are summarized below:
Statistical analyses were performed in Graphpad Prism (v8). Significance, as compared to vehicle-treated rats, for ΔBMAP and ΔBHR data was determined by 2-way repeated measures ANOVA followed by a Dunnett's multiple comparisons test, if there was a missing data point, a mixed-effect analysis was utilized. Vehicle-adjusted MAP (ΔVMAP) was calculated by subtracting ΔBMAP of the vehicle group from the ΔBMAP of each dose group at each timepoint. Vehicle-adjusted HR (ΔVHR) was calculated in a similar manner to ΔVMAP.
Significance of AOC data were determined by one-way ANOVA followed by a Dunnett's multiple comparisons test as compared to vehicle. […]

`Cc1cc(F)c(Cc2nc(-c3ncc(F)c(O)n3)cn3ccnc23)cc1F` [Compound I-14, 5-fluoro-2-(8-(2,5-difluoro-4-methylbenzyl)imidazo[1,2-a]pyrazin-6-yl)pyrimidin-4-ol] was tested, and the “Peak ΔVMAP (mm Hg)” value (1 mg/kg single oral dose) was −6.2 mm Hg, the “Peak ΔVMAP (mm Hg)” value (3 mg/kg single oral dose) was −10.1 mm Hg and the “Peak ΔVMAP (mm Hg)” value (10 mg/kg single oral dose) was −22.3 mm Hg. For the same compound, the “Peak ΔVMAP (mm Hg)” value (30 mg/kg single oral dose) was −24.4 mm Hg, the “no effect dose on ΔBMAP” value (single oral dose, main effect analysis, simple effects analysis and AOC) was 1 mg/kg and the “Time at Peak” value (1 mg/kg single oral dose) was 90 min. For the same compound, the “Time at Peak” value (3 mg/kg single oral dose) was 70 min, the “Time at Peak” value (10 mg/kg single oral dose) was 30 min and the “Time at Peak” value (30 mg/kg single oral dose) was 30 min.
